In brackets after ≈: the same amount, converted by molar mass.
How the values were obtained:
[1] = test system: Leishmania amazonensis; experiment: Antileishmanial activity against Leishmania amazonensis MHOM/BR/76/LTB-012 axenic amastigotes after 72 hrs by MTT assay; assay type: functional, organism-based; details: MHOM/BR/76/LTB-012, 72 h
[2] = test system: Leishmania amazonensis; experiment: Antileishmanial activity against Leishmania amazonensis MCAN/ES/92/BCN83 axenic amastigotes infected in BALB/c mouse assessed as reduction in parasitic burden at 10 mg/kg, ip administered as daily dose for 3 continuous days and measured at day 5 post last dose by limit dilution assay relative to control; assay type: functional; set-up: scale not given: the % may be the effect or the level left
[3] = test system: Leishmania donovani; experiment: Antileishmanial activity against Leishmania donovani […]/IN/80/DD8 promastigotes after 72 hrs by MTT assay; assay type: functional, organism-based; details: […]/IN/80/DD8, 72 h
[4] = test system: Leishmania donovani; experiment: Antileishmanial activity against Leishmania donovani MHOM/ET/ 67/L82 amastigotes infected in BALB/c mouse assessed as reduction in parasitic load in liver at 100 mg/kg, sc qd administered for 5 days measured at 3 days post last dose relative to control; assay type: functional; set-up: scale not given: the % may be the effect or the level left
[5] = Cytotoxicity against BALB/c mouse peritoneal cells assessed as reduction in cell viability after 24 hrs by MTT assay; assay type: cell-based
[6] = test system: Leishmania amazonensis; experiment: Antileishmanial activity against Leishmania amazonensis […]/BR/75/Josefa promastigotes; assay type: functional, organism-based
[7] = test system: Leishmania amazonensis; experiment: Antileishmanial activity against Leishmania amazonensis […]/BR/75/Josefa axenic amastigotes infected in mouse J774A1 cells; assay type: functional, organism-based; details: J774.A1
[8] = test system: Leishmania donovani; experiment: Antileishmanial activity against wild type Leishmania donovani LV9 promastigotes by MTT assay; assay type: functional, organism-based
[9] = test system: Mycobacterium tuberculosis; experiment: Antitubercular activity against Mycobacterium tuberculosis H37Rv ATCC 27294 after 7 to 10 days by Resazurin microtiter assay; assay type: functional, organism-based
[10] = Cytotoxicity against human U937 cells assessed as reduction in cell viability after 72 hrs by MTT assay; assay type: cell-based, U-937; details: read-out: LD50
[11] = test system: Leishmania panamensis; experiment: Antileishmanial activity against GFP-fused Leishmania panamensis MHOM/CO/87/UA140pIR amastigotes infected in human U937 cells after 72 hrs by flow cytometric analysis; assay type: functional, organism-based; details: U-937, 72 h
[12] = test system: Leishmania infantum; experiment: Antileishmanial activity against zymodemes of Leishmania infantum MCAN/ES/90/DP204 promastigotes by Neubauer chamber analysis; assay type: functional, organism-based
[13] = test system: Leishmania amazonensis; experiment: Antileishmanial activity against Leishmania amazonensis axenic amastigotes; assay type: functional, organism-based
[14] = test system: Leishmania amazonensis; experiment: Antileishmanial activity against Leishmania amazonensis promastigotes; assay type: functional, organism-based
[15] = test system: Leishmania infantum; experiment: Antileishmanial activity against Leishmania infantum MCAN/BR/97/P142 promastigotes after 24 hrs; assay type: functional, organism-based; details: MCAN/BR/97/P142, 24 h
[16] = test system: Leishmania amazonensis; experiment: Antileishmanial activity against Leishmania amazonensis MHOM/BR/77/LTB0016 promastigotes after 24 hrs; assay type: functional, organism-based; details: MHOM/BR/77/LTB0016, 24 h
[17] = test system: Leishmania amazonensis; experiment: Antileishmanial activity against Leishmania amazonensis MHOM/BR/75/Josefa axenic amastigotes after 72 hrs by Neubauer hemocytometric analysis; assay type: functional, organism-based
[18] = test system: Leishmania amazonensis; experiment: Antileishmanial activity against Leishmania amazonensis MHOM/BR/75/Josefa promastigotes after 72 hrs by Neubauer hemocytometric analysis; assay type: functional, organism-based
[19] = test system: Leishmania amazonensis; experiment: Antileishmanial activity against Leishmania amazonensis MHOM/BR/75/Josefa intracellular amastigotes after 72 hrs by Neubauer hemocytometric analysis; assay type: functional, organism-based
[20] = test system: Leishmania aethiopica; experiment: Antileishmanial activity against Leishmania aethiopica amastigotes; assay type: functional, organism-based
[21] = test system: Leishmania mexicana; experiment: Antileishmanial activity against Leishmania mexicana LV4 promastigotes; assay type: functional, organism-based
[22] = test system: Leishmania mexicana; experiment: Antileishmanial activity against Leishmania mexicana LV4 amastigotes infected in BALB/c bone marrow-derived macrophages assessed as reduction in cell viability after 2 hrs by trypan blue staining based bright-field microscopic analysis; assay type: functional, organism-based; details: LV4, 2 h
[23] = test system: Leishmania amazonensis; experiment: Antileishmanial activity against Leishmania amazonensis promastigotes assessed as reduction in parasitic growth after 5 to 7 days by Neubauer chamber analysis; assay type: functional, organism-based
[24] = test system: Leishmania major; experiment: Antileishmanial activity against Leishmania major amastigotes; assay type: functional, organism-based
[25] = test system: Leishmania mexicana venezuelensis; experiment: Antileishmanial activity against Leishmania venezuelensis MHOM/VE/74/PM-H3 amastigotes infected in BALB/c mouse assessed as reduction in parasitic load in footpad at 14 to 56 mg/kg, sc bid treated for 15 days at interval of 4 days and measured at 1 week post last dose by Giemsa staining-based inverted microscopic analysis relative to control; assay type: functional; set-up: scale not given: the % may be the effect or the level left
[26] = test system: Leishmania donovani; experiment: Antileishmanial activity against Leishmania donovani amastigotes infected in mouse J774G8 cells after 48 to 72 hrs by Giemsa staining-based bright-field microscopic analysis; assay type: functional, organism-based
[27] = test system: Leishmania donovani; experiment: Antileishmanial activity against Leishmania donovani promastigotes after 48 hrs by MTT assay; assay type: functional, organism-based
[28] = test system: Leishmania donovani; experiment: Antileishmanial activity against Leishmania donovani promastigotes infected in hamster assessed as reduction in parasitic load in spleen at 20 mg/kg, ip treated for 6 consecutive days measured at day 8 post last dose by 3H-thymidine incorporation assay relative to control; assay type: functional; set-up: scale not given: the % may be the effect or the level left
[29] = test system: Leishmania major; experiment: Antileishmanial activity against Leishmania major MHOM/IL/67/LRC-L137 promastigotes after 2 hrs by 3H-thymidine incorporation assay; assay type: functional, organism-based
[30] = test system: Leishmania donovani; experiment: Antileishmanial activity against Leishmania donovani promastigotes infected in hamster assessed as reduction in parasitic load in liver at 20 mg/kg, ip treated for 6 consecutive days measured at day 8 post last dose by 3H-thymidine incorporation assay relative to control; assay type: functional; set-up: scale not given: the % may be the effect or the level left
[31] = test system: Leishmania donovani; experiment: Antileishmanial activity against Leishmania donovani MHOM/SD/00/1SD2D axenic amastigotes infected in human peripheral blood mononuclear cells after 3 days by 3H-thymidine incorporation assay; assay type: functional, organism-based
[32] = test system: Leishmania donovani; experiment: (§1) Antileishmanial activity against Leishmania donovani promastigotes infected in golden hamster assessed as reduction in parasitic load in spleen at 3.5 mg/kg, po administered 2 times a week for 4 weeks starting at 4 days post-infection measured 1 week post last dose by Giemsa staining-based assay relative to control; assay type: functional; set-up: scale not given: the % may be the effect or the level left
[33] = test system: Leishmania donovani; experiment: as §1, with “14” for “3.5”; assay type: functional; set-up: scale not given: the % may be the effect or the level left
[34] = test system: Leishmania donovani; experiment: Antileishmanial activity against Leishmania donovani intracellular amastigotes infected in mouse J774A.1 cells by flow cytometry; assay type: functional, organism-based; details: J774.A1

With `O=C1c2ccccc2C2=NCCc3cccc1c32` the IC50 [1] was less than 0.05 µM and the Activity [2] was “<=90%”.

`O=c1oc2ccccc2c(O)c1C(c1ccccc1)c1c(O)c2ccccc2oc1=O` showed an IC50 [3] of 155 µg/mL (≈ 376 µM).

`CC(=O)O[C@@]12CO[C@@H]1C[C@H](O)[C@@]1(C)C(=O)[C@H](O)C3=C(C)[C@@H](O)C[C@@](O)([C@@H](OC(=O)c4ccccc4)[C@H]21)C3(C)C` showed an Activity [4] of 42%.

`Cc1nn(-c2ccc(S(=O)(=O)Nc3ccccc3)cc2)c(Cl)c1Br` gave a CC50 at 24 h [5] of 144 µM.

In the case of `CCCCNC(=O)c1cc2c([nH]c3ccccc32)c(-c2ccc(OC)cc2)n1`, the IC50 [6] is reported as 4.44 µM and the IC50 [7] is reported as 12.5 µM.

For `COc1ccc(N[C@]2(C(F)(F)F)O[C@@H]3O[C@@]4(C)CC[C@H]5[C@H](C)CC[C@@H]([C@H]2C)[C@@]35OO4)cc1`, the IC50 [8] was 1.5 µM.

Compound `COc1ccc(C(c2c(O)c3ccccc3oc2=O)c2c(O)c3ccccc3oc2=O)c(OC)c1` has an IC50 [3] of 158 µg/mL (≈ 333 µM).

Work on `COC(=O)CC[C@@H](C)[C@H]1CC[C@H]2[C@@H]3[C@H](O)C[C@@H]4C[C@@H](n5cc(CNCCNc6ccnc7cc(Cl)ccc67)nn5)CC[C@]4(C)[C@H]3C[C@H](O)[C@]12C` yielded an IC50 [9] of 10.6 µM.

With `O=C1C2=C(CCCC2)C2=NCCc3cccc1c32` the IC50 [1] was 0.025 µM.

`O=c1ccoc2cc(OCCCCOc3cc(Cl)ccc3Oc3ccc(Cl)cc3Cl)ccc12` gave a CC50 at 72 h [10] of 15.8 µg/mL (≈ 31.2 µM) and an EC50 [11] of 7.5 µg/mL (≈ 14.8 µM).

For `CC(C)=CCC[C@@](C)(O)C1CC=C(C)CC1` (some centres not stated), the IC50 [12] was 11 µg/mL (≈ 49.4 µM).

Work on `Cc1cc(=O)oc2cc(OCCCCOc3cc(Cl)ccc3Oc3ccc(Cl)cc3Cl)ccc12` yielded a CC50 at 72 h [10] greater than 200 µg/mL and an EC50 [11] of 27.5 µg/mL (≈ 52.9 µM).

Compound `Cc1cccc(-c2ccn(S(=O)(=O)c3ccccc3)n2)c1NS(=O)(=O)c1ccccc1` has an IC50 [13] of 56 µM and an IC50 [14] of 6.7 µM.

`Cc1nn(-c2ccc(S(=O)(=O)Nc3ccc(Cl)cc3)cc2)c(Cl)c1Br` gave an IC50 [15] of 0.065 µM, an IC50 [16] of 0.072 µM and a CC50 at 24 h [5] of 116 µM.

`C/C=C/c1ccc2oc(-c3ccc(O)c(OC)c3)c(C)c2c1` showed an IC50 [17] of 13 µg/mL (≈ 44.2 µM), an IC50 [18] of 9 µg/mL (≈ 30.6 µM) and an IC50 [19] of 5 µg/mL (≈ 17 µM).

Work on `COc1cc(OC)c(C(c2c(O)c3ccccc3oc2=O)c2c(O)c3ccccc3oc2=O)c(OC)c1` yielded an IC50 [3] of 150 µg/mL (≈ 299 µM).

`CCC(=O)N1N=C(c2ccccc2)CC1c1cn(-c2ccccc2)nc1-c1ccc(C)cc1` (configuration not stated) showed an IC50 [20] of 0.112 µg/mL (≈ 0.258 µM).

With `C=CCCCCC/C=C\CC#CC#C[C@@H](O)C=C` the IC50 [21] was 0.55 µM and the IC50 [22] was 0.48 µM.

For `C[C@@]12C[C@H]3OC(=O)[C@@H]1CO[C@]14O[C@@]5([C@H]2C1=O)[C@@]3(C)OC(=O)[C@@]5(O)CC[C@H]1[C@H]4C[C@H]2O[C@]23CC=CC(=O)[C@]13C`, the IC50 [23] was 1.4 µM.

Compound `CC(C)c1nc2nc(N)nc(N)c2nc1C(C)C` has an IC50 [24] of 0.5 µM.

For `C/C=C/c1ccc2ccccc2n1` [CHIMANINE B], the Activity [25] was 95%.

For `C/C=C1\C(=O)O[C@]23C=C[C@@H]4C(C(=O)OC)=CO[C@H](O[C@@H]12)[C@@H]43` [ISOPLUMERICIN], the IC50 [26] was 1.41 µM and the IC50 [27] was 3.17 µM.

Compound `C=CC(C)(C)c1cc(/C=C/C(=O)c2ccc(O)cc2)c(OC)cc1O` [LICOAGROCHACONE A] has an Activity [28] greater than 90%, an IC50 [29] of 7.2 µg/mL (≈ 21.3 µM) and an Activity [30] greater than 90%. The IC50 [31] was 0.9 µg/mL (≈ 2.66 µM).

In the case of `O=c1cc(-c2ccc(O)c(O)c2)oc2cc(O)cc(O)c12` [LUTEOLIN], the Activity [32] is reported as “<=90%”.

In the case of `C/C=C1/C(=O)O[C@]23C=C[C@@H]4C(C(=O)OC)=CO[C@H](O[C@@H]12)[C@@H]43` [PLUMERICIN], the IC50 [26] is reported as 4.1 µM and the IC50 [27] is reported as 7.2 µM.

With `O=c1c(O)c(-c2ccc(O)c(O)c2)oc2cc(O)cc(O)c12` [QUERCETIN] the Activity [33] was “<=90%”.

Compound `c1ccc2c(c1)Sc1ccccc1S2` [THIANTHRENE] has an IC50 [34] of 23 µM.
